Data as given in publication PMC9268166, “Modeling of Anticancer Sulfonamide Derivatives Lipophilicity by Chemometric and Quantitative Structure-Retention Relationships Approaches” (Molecules, 2022).

Key:
[1] = C18 chromatography (RP-HPLC), chromatographic hydrophobicity index; format: physicochemical; conditions: for chromatographic logD: Waters Symmetry C18 column, CHI log D = 0.0525 CHIC18 − 1.467, pH 7.4; for CHIC18: pH 7.4, 40 °C, acetonitrile gradient
Excerpt: (§1) For this reason, the next step of our study concerns the characterization of investigated sulfonamide derivatives using a chromatographic approach. Generally, in RP-HPLC, the interactions between solutes and the stationary phase surface are mainly governed by lipophilicity. Consequently, RP-HPLC is the primary tool for assessing the lipophilicity of xenobiotics. […] Generally, the chemical character of target solutes determines interactions between the molecule and the stationary phase that may occur. Considering the large variety of RP-HPLC beds and differences in specific surface area, the energy of the sorbent’s intermolecular interactions between solutes and chemical structures, four different reversed-phase stationary phases and IAM column were investigated during this study. The lipophilicity index was presented as a logkw value, so the retention factor was extrapolated to the pure water after calculation using a protocol based on two gradient measurements and DryLab software.
(§2) Since the biomimetic chromatography experiments are carried out at physiological pH to compare obtained results, all chromatographic experiments have been carried out at pH 7.4. […] Consequently, the chromatography lipophilicity indices refer to the distribution coefficient (logD) values, which better reflect the lipophilicity of ionized substances under physiological conditions.
(§3) All HPLC experiments were carried out using a Prominence-1 LC-2030C 3D HPLC system (Shimadzu, Japan) equipped with a DAD detector and controlled by the LabSolution system (version 5.90 Shimadzu, Japan). The stock solutions of solutes were diluted to obtain 100 μg/mL concentrations, and the injected volume was 10 μL. During this study, six different columns in terms of chemical modification of stationary phases were used. Retention times (tR) of investigated sulfonamides were collected, and their detection in all systems was performed at the wavelength characteristic for each compound, summarized in Table S1. For all chromatography systems, analysis was carried out at 40 °C, except for IAM chromatography, in which oven temperature was set to 30 °C. The CHIIAM and CHI18 indices of the target sulfonamides derivatives were obtained using the protocol proposed by Valko and co-workers. C18 chromatography was performed on a Waters-C18 column (150 mm × 3.9 mm; 5.0 µm; Symmetry; USA), with a 1.5 mL/min flow rate. The mobile phase was ammonium acetate buffer (50 mM) at pH 7.4 and acetonitrile as an organic modifier. The linear gradient from 2 to 98% ACN was applied from 0 to 30 min. IAM chromatography was executed on an IAM.PC.DD2 column ([…] × 4.6 mm; 10.0 µm; Regis Technologies, Morton Grove, IL, USA) additionally equipped with an IAM guard column with the same flow rate of 1.5 mL/min. The mobile phase was sodium phosphate buffer (10 mM) at pH 7.4 and acetonitrile as the organic phase. The linear gradient from 0 to 85% was applied within 5.25 min.

[2] = C8 chromatography (RP-HPLC), logkw from two gradients with DryLab; format: physicochemical; conditions: for logkw, Table S4: C8 chromatography, pH 7.4, short and long gradient; for logkwC8: pH 7.4, 40 °C, retention factor extrapolated to 0% organic modifier
Excerpt: as §1, §2
(§4) For C8, cyanopropyl, and phenyl chromatography, according to the assumption proposed by Snyder and co-workers, appropriate logkw values (i.e., the retention factor logk extrapolated to 0% organic modifier, as an alternative to logP) were obtained. […] Dwell volume for these HPLC systems was measured at 0.780 mL, whereas the obtained dead times for used HPLC columns were equal to 1.530 min, 1.252 min, and 2.335 min for C8, SB-CN, and UK-Phenyl, respectively. The mobile phase was ammonium acetate buffer (50 mM) at pH 7.4 and acetonitrile as an organic modifier in each system. C8 chromatography was performed on Unison UK-C8 column (150 × 2 mm; 3.0 µm. Imtakt; USA) with 0.3 mL/min flow rate. Analyses were carried out in linear gradient from 30 to 100% within 15 min in short gradient and 30 min in long gradient. The Agilent SB-CN column (150 × 4.6 mm; 3.5 µm; Zorbax; USA) was used for the cyanopropyl chromatography. The CN chromatography analyses were carried out in linear gradient from 20 to 100%, which was applied from 0 to 20 min in short gradient, and from 0 to 40 min in long gradient. The flow rate was 1.5 mL/min. The column Unison UK-Phenyl (150 × 2 mm; 3.0 µm; Imtakt; USA) was used to perform phenyl chromatography. The flow rate was set to 0.2 mL/min. The phenyl analyses were carried out in linear gradient from 40 to 100%, which was applied from 0 to 20 min in short gradient, and from 0 to 40 min in long gradient. Each HPLC analysis was run in triplicate; in Tables S2–S6, obtained retention times are listed, whereas representative chromatograms are shown in Figure 9.

[3] = Phenyl (Ph) chromatography, logkw from two gradients with DryLab; format: physicochemical; conditions: for logkw, Table S6: Phenyl chromatography, pH 7.4, short and long gradient; for logkwPh: pH 7.4, 40 °C, retention factor extrapolated to 0% organic modifier
Excerpt: as §1, §2, §4

[4] = Cyanopropyl (CN) chromatography, logkw from two gradients with DryLab; format: physicochemical; conditions: for logkw, Table S5: Cyanopropyl chromatography, pH 7.4, short and long gradient; for logkwCN: pH 7.4, 40 °C, retention factor extrapolated to 0% organic modifier
Excerpt: as §1, §2, §4

[5] = IAM chromatography (IAM-HPLC), IAM.PC.DD2 column; format: physicochemical; conditions: for CHI (CHIIAM), Table S2: IAM chromatography, from mean of three retention times; for logkIAM: logkIAM = 0.045 CHIIAM + 0.42
Excerpt: as §1, §2, §3

[6] = tested on: human colon cancer (HCT-116); design: method as in PMID 29772699, PMID 28122174, PMID 27338337, PMID 26506328; conditions: HCT-116 cell line; cited from earlier work

Row | chromatographic logD [1] | CHIC18 [1] | logkw, Table S4 [2] | logkwC8 [2] | logkw, Table S6 [3] | logkwPh [3] | logkw, Table S5 [4] | logkwCN [4] | CHI (CHIIAM), Table S2 ([5]; pH 7.4) | lipophilicity rank by the chromatographic experiments ([5]; based on the experimental data of all chromatographic systems, pH 7.4) | logkIAM ([5]; pH 7.4) | CHIIAM ([5]; pH 7.4, 30 °C, acetonitrile gradient) | SMILES | pIC50 [6]
1 | 1.51 | 56.70 | 2.980 | 2.98 | 2.620 | 2.62 | 1.580 | 1.58 | 19.2 | least lipophilic | 1.28 | – | Cc1ccnc(NS(=O)(=O)c2ccc(-n3cccc3)cc2)n1 [Compound 1] | 4.34
2 | 3.65 | 97.50 | 4.682 | 4.68 | 6.221 | 6.22 | 4.040 | 4.04 | 45.0 | – | 2.45 | – | O=S(=O)(Nc1cccc2cccnc12)c1ccc(-n2cccc2)cc1 [Compound 2] | 6.00
3 | 3.51 | 94.80 | 4.593 | 4.59 | 5.556 | 5.56 | 2.966 | 2.97 | 42.0 | – | 2.31 | – | Cc1ccc2cccnc2c1NS(=O)(=O)c1ccc(-n2cccc2)cc1 [Compound 3] | 4.72
4 | 4.04 | 104.80 | 4.898 | 4.90 | 7.389 | 7.39 | 3.628 | 3.63 | 45.9 | – | 2.49 | – | Cc1ccc2cccc(NS(=O)(=O)c3ccc(-n4cccc4)cc3)c2n1 [Compound 4] | 5.05
5 | 2.89 | 82.90 | 4.055 | 4.06 | 4.079 | 4.08 | 2.300 | 2.30 | 31.4 | – | 1.83 | – | O=S(=O)(Nc1cccc2nsnc12)c1ccc(-n2cccc2)cc1 [Compound 5] | 4.64
6 | 3.5 | 94.70 | 4.609 | 4.61 | 5.391 | 5.39 | 2.892 | 2.89 | 45.4 | – | 2.46 | – | O=S(=O)(Nc1ccc(Cl)cc1)c1ccc(-n2cccc2)cc1 [Compound 6] | 4.15
7 | 1.88 | 63.80 | 3.300 | 3.30 | 2.810 | 2.81 | 1.780 | 1.78 | 24.3 | – | 1.51 | – | Cc1cc(C)nc(NS(=O)(=O)c2ccc(-n3cccc3)cc2)n1 [Compound 7] | 4.16
8 | 2.88 | 82.80 | 4.206 | 4.21 | 4.490 | 4.49 | 2.010 | 2.01 | 36.7 | – | 2.07 | – | Cc1cc(S(=O)(=O)Nc2nnc(-c3ccccc3)c(=O)[nH]2)c(SCc2ccc(C(F)(F)F)cc2)cc1Cl [Compound 8] | 4.10
9 | 2.33 | 72.30 | 3.692 | 3.69 | 2.880 | 2.88 | 1.850 | 1.85 | 31.4 | – | 1.83 | – | Cc1cc(S(=O)(=O)Nc2nnc(C)c(=O)[nH]2)c(SCc2cccc3ccccc23)cc1Cl [Compound 9] | 4.07
10 | 2.96 | 84.30 | 4.211 | 4.21 | 4.193 | 4.19 | 2.251 | 2.25 | 39.1 | – | 2.18 | – | Cc1cc(S(=O)(=O)Nc2nnc(-c3ccccc3)c(=O)[nH]2)c(SCc2cccc3ccccc23)cc1Cl [Compound 10] | 4.05
11 | 2.75 | 80.30 | 4.074 | 4.07 | 3.824 | 3.82 | 2.130 | 2.13 | 35.5 | – | 2.02 | – | Cc1cc(S(=O)(=O)Nc2nnc(Cc3ccccc3)c(=O)[nH]2)c(SCc2cc3c(cc2Cl)OCO3)cc1Cl [Compound 11] | 4.06
12 | 2.7 | 79.30 | 4.070 | 4.07 | 3.897 | 3.90 | 2.162 | 2.16 | – | – | 2.00 | 35.20 | Cc1cc(S(=O)(=O)Nc2nnc(Cc3ccccc3[N+](=O)[O-])c(=O)[nH]2)c(SCc2cc3c(cc2Cl)OCO3)cc1Cl [Compound 12] | 4.06
13 | 2.62 | 77.90 | 4.030 | 4.03 | 3.532 | 3.53 | 2.037 | 2.04 | 37.1 | – | 2.09 | – | Cc1cc(S(=O)(=O)Nc2nncc(-c3cccc(F)c3)n2)c(SCc2ccccc2)cc1Cl [Compound 13] | 4.12

Row | SMILES | chromatographic logD [1] | CHIC18 [1] | logkw, Table S4 [2] | logkwC8 [2] | logkw, Table S6 [3] | logkwPh [3] | logkw, Table S5 [4] | logkwCN [4] | CHI (CHIIAM), Table S2 ([5]; pH 7.4) | lipophilicity rank by the chromatographic experiments ([5]; based on the experimental data of all chromatographic systems, pH 7.4) | logkIAM ([5]; pH 7.4) | CHIIAM ([5]; pH 7.4, 30 °C, acetonitrile gradient) | pIC50 [6]
14 | CC(=O)NS(=O)(=O)c1cc(C)c(Cl)cc1SCc1cccc2ccccc12 [Compound 26] | 2.95 | 84.10 | 3.655 | 3.66 | 2.870 | 2.87 | 1.763 | 1.76 | 30.6 | – | 1.80 | – | –
15 | Cc1cc(S(=O)(=O)NC(=O)C=Cc2ccccc2)c(SCc2cccc3ccccc23)cc1Cl [Compound 27] | 2.37 | 73.10 | 4.279 | 4.28 | 4.460 | 4.46 | 2.313 | 2.31 | 39.6 | – | 2.20 | – | –
